Data from PubChem BioAssay (NCI).
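Assay format: 96-well plates, 48-hour exposure. TGI: concentration producing complete growth inhibition.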

Legend:
Test in all cases: DTP human tumour cell line panel, 48 h
KM12 colon = system: KM12 colon
COLO 205 colon = system: COLO 205 colon
SK-MEL-28 melanoma = system: SK-MEL-28 melanoma
OVCAR-5 ovarian = system: OVCAR-5 ovarian
CAKI-1 renal = system: CAKI-1 renal
DU-145 prostate = system: DU-145 prostate
SF-295 CNS = system: SF-295 CNS
M14 melanoma = system: M14 melanoma
HL-60(TB) leukemia = system: HL-60(TB) leukemia
SF-268 CNS = system: SF-268 CNS
SN12C renal = system: SN12C renal
NCI/ADR-RES ovarian = system: NCI/ADR-RES ovarian
OVCAR-4 ovarian = system: OVCAR-4 ovarian
T-47D breast = system: T-47D breast
MCF7 breast = system: MCF7 breast
HT29 colon = system: HT29 colon
NCI-H460 lung = system: NCI-H460 lung
SK-OV-3 ovarian = system: SK-OV-3 ovarian
MDA-N = system: MDA-N
OVCAR-3 ovarian = system: OVCAR-3 ovarian
MDA-MB-231 breast = system: MDA-MB-231 breast
BT-549 breast = system: BT-549 breast
SNB-75 CNS = system: SNB-75 CNS
786-0 renal = system: 786-0 renal
RPMI-8226 leukemia = system: RPMI-8226 leukemia
SK-MEL-5 melanoma = system: SK-MEL-5 melanoma
ACHN renal = system: ACHN renal
K-562 leukemia = system: K-562 leukemia
SF-539 CNS = system: SF-539 CNS
U251 CNS = system: U251 CNS
A498 renal = system: A498 renal
HCC-2998 colon = system: HCC-2998 colon
RXF 393 renal = system: RXF 393 renal
NCI-H23 lung = system: NCI-H23 lung
SR leukemia = system: SR leukemia
TK-10 renal = system: TK-10 renal
MALME-3M melanoma = system: MALME-3M melanoma
HOP-62 NSCLC = system: HOP-62 NSCLC
SW-620 colon = system: SW-620 colon
UACC-257 melanoma = system: UACC-257 melanoma
HS 578T breast = system: HS 578T breast
MDA-MB-435 = system: MDA-MB-435
PC-3 prostate = system: PC-3 prostate
IGROV1 ovarian = system: IGROV1 ovarian
UACC-62 melanoma = system: UACC-62 melanoma
SNB-19 CNS = system: SNB-19 CNS
UO-31 renal = system: UO-31 renal
HCT-15 colon = system: HCT-15 colon
LOX IMVI melanoma = system: LOX IMVI melanoma
A549 NSCLC = system: A549 NSCLC
HCT-116 colon = system: HCT-116 colon
SK-MEL-2 melanoma = system: SK-MEL-2 melanoma
MOLT-4 leukemia = system: MOLT-4 leukemia
CCRF-CEM leukemia = system: CCRF-CEM leukemia
EKVX NSCLC = system: EKVX NSCLC
OVCAR-8 ovarian = system: OVCAR-8 ovarian
HOP-92 NSCLC = system: HOP-92 NSCLC
NCI-H226 lung = system: NCI-H226 lung
NCI-H522 lung = system: NCI-H522 lung

Compound `COc1ccc(N=Nc2c(C)c(C#N)c(=S)n(C3OC(CO)C(O)C(O)C3O)c2-c2ccccc2)cc1` (centres undefined) has a TGI (KM12 colon) greater than 100 µM, a TGI (COLO 205 colon) greater than 100 µM and a TGI (SK-MEL-28 melanoma) of 63.6 µM. It also gave a TGI (OVCAR-5 ovarian) of 81.6 µM, a TGI (CAKI-1 renal) of 73.3 µM and a TGI (DU-145 prostate) greater than 100 µM. For the same compound, the TGI (SF-295 CNS) was 98.5 µM, the TGI (M14 melanoma) was 76.8 µM and the TGI (HL-60(TB) leukemia) was greater than 100 µM. For the same compound, the TGI (SF-268 CNS) was greater than 100 µM, the TGI (SN12C renal) was greater than 100 µM and the TGI (NCI/ADR-RES ovarian) was greater than 100 µM. For the same compound, the TGI (OVCAR-4 ovarian) was greater than 100 µM, the TGI (T-47D breast) was 97.3 µM and the TGI (MCF7 breast) was 84.7 µM. For the same compound, the TGI (HT29 colon) was greater than 100 µM, the TGI (NCI-H460 lung) was greater than 100 µM and the TGI (SK-OV-3 ovarian) was 83.3 µM. It also gave a TGI (MDA-N) greater than 100 µM, a TGI (OVCAR-3 ovarian) of 55.3 µM and a TGI (MDA-MB-231 breast) greater than 100 µM. The TGI (BT-549 breast) was 97.6 µM, the TGI (SNB-75 CNS) was 49.1 µM and the TGI (786-0 renal) was greater than 100 µM. It also gave a TGI (RPMI-8226 leukemia) greater than 100 µM, a TGI (SK-MEL-5 melanoma) of 27.8 µM and a TGI (ACHN renal) greater than 100 µM. It also gave a TGI (K-562 leukemia) greater than 100 µM, a TGI (SF-539 CNS) greater than 100 µM and a TGI (U251 CNS) of 86.1 µM. For the same compound, the TGI (A498 renal) was 44.5 µM, the TGI (HCC-2998 colon) was greater than 100 µM and the TGI (RXF 393 renal) was 65.9 µM. The TGI (NCI-H23 lung) was 98 µM, the TGI (SR leukemia) was greater than 100 µM and the TGI (TK-10 renal) was 94.8 µM. It also gave a TGI (MALME-3M melanoma) of 63.1 µM, a TGI (HOP-62 NSCLC) of 98.2 µM and a TGI (SW-620 colon) greater than 100 µM. The TGI (UACC-257 melanoma) was greater than 100 µM, the TGI (HS 578T breast) was 55.3 µM and the TGI (MDA-MB-435) was 73.9 µM. It also gave a TGI (PC-3 prostate) of 66.3 µM, a TGI (IGROV1 ovarian) greater than 100 µM and a TGI (UACC-62 melanoma) of 47.6 µM. It also gave a TGI (SNB-19 CNS) greater than 100 µM, a TGI (UO-31 renal) greater than 100 µM and a TGI (HCT-15 colon) greater than 100 µM. The TGI (LOX IMVI melanoma) was 99.6 µM, the TGI (A549 NSCLC) was greater than 100 µM and the TGI (HCT-116 colon) was 94 µM. For the same compound, the TGI (SK-MEL-2 melanoma) was 89.7 µM, the TGI (MOLT-4 leukemia) was 46.5 µM and the TGI (CCRF-CEM leukemia) was greater than 100 µM.

In the case of `CC(O)(Cc1ccccc1C#N)Cc1ccccc1C#N`, the TGI (KM12 colon) is reported as greater than 100 µM, the TGI (COLO 205 colon) is reported as greater than 100 µM and the TGI (SK-MEL-28 melanoma) is reported as greater than 100 µM. It also gave a TGI (OVCAR-5 ovarian) greater than 100 µM, a TGI (CAKI-1 renal) greater than 100 µM and a TGI (DU-145 prostate) greater than 100 µM. For the same compound, the TGI (SF-295 CNS) was greater than 100 µM, the TGI (M14 melanoma) was greater than 100 µM and the TGI (HL-60(TB) leukemia) was 97.7 µM. The TGI (EKVX NSCLC) was greater than 100 µM, the TGI (SF-268 CNS) was greater than 100 µM and the TGI (SN12C renal) was greater than 100 µM. The TGI (NCI/ADR-RES ovarian) was greater than 100 µM, the TGI (OVCAR-4 ovarian) was greater than 100 µM and the TGI (T-47D breast) was greater than 100 µM. The TGI (MCF7 breast) was greater than 100 µM, the TGI (HT29 colon) was greater than 100 µM and the TGI (NCI-H460 lung) was greater than 100 µM. The TGI (OVCAR-8 ovarian) was greater than 100 µM, the TGI (SK-OV-3 ovarian) was greater than 100 µM and the TGI (MDA-N) was greater than 100 µM. It also gave a TGI (OVCAR-3 ovarian) greater than 100 µM, a TGI (MDA-MB-231 breast) greater than 100 µM and a TGI (BT-549 breast) greater than 100 µM. It also gave a TGI (SNB-75 CNS) of 98.9 µM, a TGI (786-0 renal) greater than 100 µM and a TGI (SK-MEL-5 melanoma) greater than 100 µM. It also gave a TGI (ACHN renal) greater than 100 µM, a TGI (K-562 leukemia) greater than 100 µM and a TGI (HOP-92 NSCLC) greater than 100 µM. It also gave a TGI (SF-539 CNS) greater than 100 µM, a TGI (NCI-H226 lung) greater than 100 µM and a TGI (NCI-H522 lung) greater than 100 µM. The TGI (U251 CNS) was greater than 100 µM, the TGI (A498 renal) was greater than 100 µM and the TGI (HCC-2998 colon) was greater than 100 µM. The TGI (RXF 393 renal) was greater than 100 µM, the TGI (SR leukemia) was greater than 100 µM and the TGI (TK-10 renal) was greater than 100 µM. For the same compound, the TGI (MALME-3M melanoma) was greater than 100 µM, the TGI (HOP-62 NSCLC) was greater than 100 µM and the TGI (SW-620 colon) was greater than 100 µM. The TGI (UACC-257 melanoma) was greater than 100 µM, the TGI (HS 578T breast) was greater than 100 µM and the TGI (MDA-MB-435) was greater than 100 µM. It also gave a TGI (PC-3 prostate) greater than 100 µM, a TGI (IGROV1 ovarian) greater than 100 µM and a TGI (UACC-62 melanoma) greater than 100 µM. It also gave a TGI (SNB-19 CNS) greater than 100 µM, a TGI (HCT-15 colon) greater than 100 µM and a TGI (LOX IMVI melanoma) greater than 100 µM. It also gave a TGI (A549 NSCLC) greater than 100 µM, a TGI (HCT-116 colon) greater than 100 µM and a TGI (SK-MEL-2 melanoma) greater than 100 µM. It also gave a TGI (MOLT-4 leukemia) greater than 100 µM.
